Reference: patent US20250186404A1, “METHODS OF USING A (THIAZOLYL)BENZENESULFONAMIDE DERIVATIVE” (Cyteir Therapeutics, Inc., priority 2023, published 2025)

Tests used:
Assay type in all cases: cell-based
Human MCT3 = target: T1, Human MCT3 (Homo sapiens, UniProt O95907); test: Inhibition of 3BP import (rescue of viability) in MCT3-overexpressing INS-1 cells; conditions: INS-1 cells over-expressing human MCT3, rescue from LC100 3BP
T1 construct: expressed in transfected cells
T1 sequence (O95907 1-504): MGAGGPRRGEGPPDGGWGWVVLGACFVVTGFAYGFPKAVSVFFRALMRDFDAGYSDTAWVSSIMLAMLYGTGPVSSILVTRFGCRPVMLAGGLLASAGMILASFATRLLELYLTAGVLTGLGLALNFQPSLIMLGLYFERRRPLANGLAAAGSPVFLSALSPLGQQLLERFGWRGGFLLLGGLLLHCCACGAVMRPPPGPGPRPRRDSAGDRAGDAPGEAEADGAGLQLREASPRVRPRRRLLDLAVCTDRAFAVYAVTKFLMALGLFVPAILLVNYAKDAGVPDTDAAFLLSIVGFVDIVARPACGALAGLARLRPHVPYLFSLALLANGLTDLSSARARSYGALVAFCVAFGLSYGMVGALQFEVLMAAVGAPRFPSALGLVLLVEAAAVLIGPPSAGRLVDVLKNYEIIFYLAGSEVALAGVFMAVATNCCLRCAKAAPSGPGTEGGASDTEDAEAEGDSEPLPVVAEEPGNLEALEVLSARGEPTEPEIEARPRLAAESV
T1 sequence (P26453 23-388 partner): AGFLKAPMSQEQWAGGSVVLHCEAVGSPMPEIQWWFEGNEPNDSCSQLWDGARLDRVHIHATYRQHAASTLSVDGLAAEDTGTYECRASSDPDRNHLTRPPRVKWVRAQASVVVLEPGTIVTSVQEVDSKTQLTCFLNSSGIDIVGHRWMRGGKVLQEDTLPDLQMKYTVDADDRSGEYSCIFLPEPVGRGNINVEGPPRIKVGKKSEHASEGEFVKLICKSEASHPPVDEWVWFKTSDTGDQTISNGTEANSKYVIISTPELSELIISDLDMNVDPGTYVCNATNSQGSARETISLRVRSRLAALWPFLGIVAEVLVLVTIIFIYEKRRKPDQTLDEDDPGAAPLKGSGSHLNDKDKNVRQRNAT
Procedure: (§1) Human MCT1-4 were stably expressed in INS-1 rat pancreatic islet B-cells, which are deficient in endogenous MCT expression. 3-Bromopyruvate (3BP), a highly reactive and cytotoxic monocarboxylate, can enter the INS-1 cells via the overexpressed MCT isoform, resulting in rapid cell death. However, prevention of 3BP transport into the cell by an MCT inhibitor can prevent 3BP-mediated cell death (FIG. 16).
(§2) INS-1 cells over-expressing an MCT paralog were treated with a titration of 3BP to determine the lowest concentration that results in 100% cell killing (LC100). The INS-1 cells were then pre-treated with a titration of Compound 67A before exposure to the LC100 concentration of 3BP specific for that MCT-over-expressing cell line, and rescue of cell viability was measured (FIG. 17).

Human MCT2 = target: T2, Human MCT2 (Homo sapiens, UniProt O60669); test: Inhibition of 3BP import (rescue of viability) in MCT2-overexpressing INS-1 cells; conditions: INS-1 cells over-expressing human MCT2, rescue from LC100 3BP
T2 construct: expressed in transfected cells
T2 sequence (O60669 1-478): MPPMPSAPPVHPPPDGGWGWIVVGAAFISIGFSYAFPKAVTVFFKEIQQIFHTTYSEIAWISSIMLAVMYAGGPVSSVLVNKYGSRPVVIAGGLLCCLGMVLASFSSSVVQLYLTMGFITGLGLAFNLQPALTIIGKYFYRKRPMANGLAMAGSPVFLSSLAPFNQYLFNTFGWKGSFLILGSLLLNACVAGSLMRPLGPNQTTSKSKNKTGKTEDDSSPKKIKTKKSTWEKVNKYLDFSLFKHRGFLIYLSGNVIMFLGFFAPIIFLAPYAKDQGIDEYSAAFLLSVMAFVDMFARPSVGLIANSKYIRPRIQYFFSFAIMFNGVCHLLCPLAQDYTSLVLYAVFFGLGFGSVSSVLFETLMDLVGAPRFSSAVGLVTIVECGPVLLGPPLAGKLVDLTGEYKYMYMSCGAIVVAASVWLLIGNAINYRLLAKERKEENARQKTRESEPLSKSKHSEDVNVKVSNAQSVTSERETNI
Procedure: as §1, §2

human MCT1 = target: T3, human MCT1 (Homo sapiens, UniProt P53985); test: Inhibition of 3BP import (rescue of viability) in MCT1-overexpressing INS-1 cells; conditions: INS-1 cells over-expressing human MCT1, rescue from LC100 3BP
T3 construct: expressed in transfected cells
T3 sequence (P53985 1-500): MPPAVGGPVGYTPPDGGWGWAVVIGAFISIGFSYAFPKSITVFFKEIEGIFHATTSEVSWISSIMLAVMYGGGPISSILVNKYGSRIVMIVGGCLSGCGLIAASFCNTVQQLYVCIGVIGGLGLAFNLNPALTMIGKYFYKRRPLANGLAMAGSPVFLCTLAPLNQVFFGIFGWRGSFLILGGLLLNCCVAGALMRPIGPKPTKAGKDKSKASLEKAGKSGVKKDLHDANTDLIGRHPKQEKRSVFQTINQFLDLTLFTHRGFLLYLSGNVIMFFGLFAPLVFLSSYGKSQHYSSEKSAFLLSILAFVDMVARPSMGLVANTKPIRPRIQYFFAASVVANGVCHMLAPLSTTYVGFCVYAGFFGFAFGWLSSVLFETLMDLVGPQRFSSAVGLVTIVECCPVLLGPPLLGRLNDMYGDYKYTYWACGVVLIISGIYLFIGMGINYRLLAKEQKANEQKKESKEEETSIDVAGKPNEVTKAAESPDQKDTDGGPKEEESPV
T3 sequence (P26453 23-388 partner): T1 sequence (P26453 23-388 partner)
Procedure: as §1, §2

Row | Compound | IC50 (Human MCT3) | IC50 (Human MCT2) | IC50 (human MCT1)
1 | AZD3965 | > 33 µM | 1 to 10 µM | < 0.1 µM
2 | O=C(Nc1ccccc1C(=O)O)c1cc(S(=O)(=O)c2ccccc2)ccc1Cl [BAY8002] | > 33 µM | 1 to 10 µM | 1 to 10 µM
3 | CC(C)OC(=O)Nc1ccc(-c2cnc([C@H]3CC[C@H](NC(=O)OC(C)C)CC3)s2)c(S(=O)(=O)NC(C)(C)C)c1 [Compound 67A] | 10 to 33 µM | > 33 µM | 0.1 to 1 µM
